Converted amounts (≈) assume the structure as drawn. Read-outs that look alike come from different tables or passages of the source.
Tests used:
M. tuberculosis LeuRS = M. tuberculosis LeuRS (Mycobacterium tuberculosis, UniProt P9WFV1); assay: biochemical; design: species or system M. tuberculosis H37Rv
Vero cells = assay: In vitro cytotoxicity assay (MTT); assay type: cell-based, African green monkey; settings: Chlorocebus sabaeus, 72 h
Description: Vero epithelial cells (from African green monkey; ATCC CCL-81) were cultured in Dulbecco's modified Eagle's medium (DMEM) supplemented with 10% fetal bovine serum (FBS) and maintained in a humidified incubator (37°C in 5% CO2). Cells were dislodged with a cell scraper, collected by centrifugation, resuspended in fresh medium at ∼10^6 cells/ml, dispensed into 96-well microtiter plates ([…]), and incubated for 18 h at 37°C. Twofold serial dilutions of test compounds in DMEM with FBS were subsequently added, and cells were incubated for another 72 h. In triplicate studies, the cytopathic effects of compounds were evaluated colorimetrically by using the 3-(4,5-dimethyl-2-thiazolyl)-2,5-diphenyl-2H-tetrazolium bromide (MTT) cell proliferation assay (ATCC). IC50 data were obtained from dose-response curves plotted by using GraphPad Prism 5.

M. tuberculosis H37Rv = assay: MIC for M. tuberculosis H37Rv (resazurin/alamarBlue); assay type: cell-based, Mycobacterium tuberculosis; settings: for MIC: Mycobacterium tuberculosis, H37RV, read-out: MIC M.tb H37Rv; for improvement of MIC values over compound 1: M. tuberculosis H37Rv
in vitro = in vitro ADME; settings: mouse plasma, 1 and 10 µg/ml, ultrafiltration; read-out: Mouse PPB (converted)
Description: Compounds were added to 1.5-ml aliquots of mouse plasma at concentrations of 1 and 10 µg/ml and then incubated in a shaking water bath at 37°C for 15 min. Both samples were treated similarly, and a 0.5-ml aliquot was removed from each tube and added to the filter reservoir of Microcon centrifugal filter devices (Ultracel YM-30 with a molecular mass cutoff of 30 kDa). The devices were centrifuged at 1,000 × g for 10 min, and 100 μl of the filtrate was transferred to a 96-well plate and diluted 5-fold. Ten-microliter volumes of the samples were injected and analyzed with the LC-MS/MS system. All samples were analyzed in duplicate. Quantitation was based on the peak area ratio of the analyte over the internal standard, and all integrations were performed with peak areas by using Analyst version 1.4.1 (Applied Biosystems, Foster City, CA, USA). Plasma protein binding was calculated based on the following equation: Plasma Protein Binding (%)=(PeakAreaPlasma UltrafilrateSpiked−PeakAreaPlasmaFiltrate)/PeakAreaPlasma UltrafiltrateSpiked×100

COX1 in HepG2 cells = assay: Mitochondrial protein synthesis assay, COX1 level; assay type: cell-based; settings: Homo sapiens, 168 h; HepG2, 7 days; read-out: Mean EC50 ± SD COX1
Description: (§1) The human liver carcinoma-derived HepG2 cell line was obtained from the ATCC (ATCC HB-8065). HepG2 cells were grown in Dulbecco's modified Eagle's medium containing 10% fetal calf serum, 1 mM sodium pyruvate, 0.1 mM essential amino acids, and 50 U/ml penicillin-streptomycin at 37°C with 5% CO2. HepG2 cells were seeded into 96-well plates at 3,000 cells/200 μl/well in cell culture medium. Cells were then grown in the presence of the compounds at 37°C in 10% CO2 for 7 days in at least duplicate concentrations, with the medium and compounds being replaced on the fourth day. After 7 days, the levels of SDHA (subunit A of the succinate dehydrogenase complex) and COX1 (cytochrome c oxidase) were determined by using the MitoSciences In-Cell enzyme-linked immunosorbent assay (ELISA) kit. Janus green staining was used to determined cell viability after 7 days (In-Cell ELISA kit, catalog number MS643).

HepG2 cells = assay: HepG2 cell viability (Janus green staining); assay type: cell-based; settings: Homo sapiens, 168 h, HepG2, 7 days, read-out: Mean EC50 ± SD Cell viability
Description: as §1

SDHA in HepG2 cells = assay: Mitochondrial protein synthesis assay, SDHA level; assay type: cell-based; settings: Homo sapiens, 168 h; HepG2, 7 days; read-out: Mean EC50 ± SD SDHA
Description: as §1

in vivo = settings: mouse, 30 mg/kg; for α-t1/2 % AUC / β-t1/2 % AUC: i.v.; for AUC(0-inf) / Cmax / MRT / Vd / clearance / half-life / AUC(0-t) / Tmax / bioavailability: in vivo
Description: Mouse pharmacokinetic studies were conducted by using female CD-1 mice for compounds 1, 11, and 12, while BALB/c mice were used for compound 13. Mouse body weights were 19 to 28 g, and on the morning of dosing, mice were split randomly into 3 dosing groups to receive the test article by either intravenous (i.v.) tail vein injection or oral (p.o.) gavage. After dosing, blood samples were collected via cardiac puncture at specific time points (n = 3 mice/time point) through 24 h (K2EDTA as an anticoagulant) and processed for plasma. Antibiotic concentrations in the plasma samples were analyzed by liquid chromatography-tandem mass spectrometry (LC-MS/MS). The LC-MS/MS analysis was conducted by using analyte/internal standard peak area methods. The internal standard was AN3365 ([21]), and the instrument used was an API4000 QTRAP instrument (AB Sciex). The limit of quantitation (LOQ) was 1 or 2 ng/ml. Pharmacokinetic analyses of the mean plasma concentration-time profiles were performed by using WinNonlin Pro version 5.2. A compartmental model was used for the data for i.v. dosing, and a noncompartmental model was used for the data for p.o. dosing. […] Compounds 1 and 13 were formulated in saline (0.9% [wt/vol] NaCl) at 7.5 mg/ml, and the pH was adjusted to >5 by the addition of NaOH. Compound 11 was formulated to 6.5 mg/ml in water-dimethylacetamide-ethanol (EtOH) (76:19:5), and the pH was adjusted to >5 by the addition of NaOH. Compound 12 was formulated to 7.5 mg/ml in PEG 300-propylene glycol (PG)-water (55:25:20), and the pH was adjusted to >5 by the addition of NaOH.

[1] = target: M. tuberculosis LeuRS editing domain (Mycobacterium tuberculosis, UniProt P9WFV1); assay: biochemical; assay type: binding
Chain of M. tuberculosis LeuRS editing domain (P9WFV1 309-513): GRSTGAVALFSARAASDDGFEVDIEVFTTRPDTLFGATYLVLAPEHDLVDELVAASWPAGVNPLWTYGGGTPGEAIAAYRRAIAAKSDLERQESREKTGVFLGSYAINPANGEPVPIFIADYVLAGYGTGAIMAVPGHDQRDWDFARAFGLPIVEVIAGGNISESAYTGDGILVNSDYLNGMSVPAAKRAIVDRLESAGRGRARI

Chain of M. tuberculosis LeuRS (P9WFV1 whole entry): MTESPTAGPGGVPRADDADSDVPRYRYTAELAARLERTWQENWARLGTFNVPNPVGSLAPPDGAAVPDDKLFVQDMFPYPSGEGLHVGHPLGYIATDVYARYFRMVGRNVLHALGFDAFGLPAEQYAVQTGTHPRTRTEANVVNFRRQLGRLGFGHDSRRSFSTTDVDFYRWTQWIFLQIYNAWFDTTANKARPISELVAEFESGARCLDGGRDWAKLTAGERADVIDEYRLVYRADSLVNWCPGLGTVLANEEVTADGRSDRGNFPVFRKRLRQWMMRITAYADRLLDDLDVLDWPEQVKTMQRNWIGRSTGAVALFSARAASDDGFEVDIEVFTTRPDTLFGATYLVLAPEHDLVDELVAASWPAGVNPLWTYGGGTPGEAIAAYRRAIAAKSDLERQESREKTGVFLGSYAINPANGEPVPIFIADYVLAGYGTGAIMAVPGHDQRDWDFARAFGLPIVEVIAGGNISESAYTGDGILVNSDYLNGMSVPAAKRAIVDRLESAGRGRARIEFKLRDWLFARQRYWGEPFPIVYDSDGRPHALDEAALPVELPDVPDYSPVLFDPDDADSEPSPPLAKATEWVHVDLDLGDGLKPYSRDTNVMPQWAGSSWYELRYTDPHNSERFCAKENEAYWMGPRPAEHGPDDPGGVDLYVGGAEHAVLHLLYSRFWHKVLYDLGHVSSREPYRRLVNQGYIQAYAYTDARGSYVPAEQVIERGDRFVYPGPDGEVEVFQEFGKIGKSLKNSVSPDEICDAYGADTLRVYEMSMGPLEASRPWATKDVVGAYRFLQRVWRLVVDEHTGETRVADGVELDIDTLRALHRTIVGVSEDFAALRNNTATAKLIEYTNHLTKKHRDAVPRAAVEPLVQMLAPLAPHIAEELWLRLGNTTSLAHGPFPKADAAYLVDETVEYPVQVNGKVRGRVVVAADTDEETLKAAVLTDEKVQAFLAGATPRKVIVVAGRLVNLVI

SMILES | IC50 (M. tuberculosis LeuRS; read-out: IC50 M.tb LeuRS) [µM] | EC50 (Vero cells) [µM] | MIC (M. tuberculosis H37Rv) [µg/mL] | fraction unbound (in vitro) | α-t1/2 % AUC (in vivo) [% AUC] | β-t1/2 % AUC (in vivo) [% AUC] | AUC(0-inf) (in vivo; iv) [ng·h/mL] | Cmax (in vivo; iv) [ng/mL] | MRT (in vivo; iv) [h] | Vd (in vivo; iv) [L/kg] | clearance (in vivo; iv) [mL/min/kg] | half-life (in vivo; iv, α-t1/2, mouse) [h] | half-life (in vivo; iv, β-t1/2, mouse) [h] | AUC(0-t) (in vivo; po) [ng·h/mL] | Cmax (in vivo; po) [ng/mL] | Tmax (in vivo; po) [h] | bioavailability (in vivo; po) [%] | half-life (in vivo; po, Terminal t1/2, mouse) [h] | other results
CCOc1ccc(C)c2c1B(O)OC2CN (stereo not shown) [Compound 8] | 0.2 | > 50 | 0.04 (≈ 0.181 µM) | – | – | – | – | – | – | – | – | – | – | – | – | – | – | – | –
CCOc1ccc(-c2ccccc2)c2c1B(O)OC2CN.Cl (stereo not shown) [Compound 10, 3-(Aminomethyl)-7-ethoxy-4-phenylbenzo[c][1,2]oxaborol-1(3H)-ol hydrochloride] | 28 | > 50 | 17 | – | – | – | – | – | – | – | – | – | – | – | – | – | – | – | –
CCOc1ccc(F)c2c1B(O)O[C@@H]2CN [Compound 12] | 0.08 | – | 0.05 (≈ 0.222 µM) | 0.84 | 7 | 93 | 26800 | 13700 | 3.4 | 3.81 | 18.6 | 0.11 | 2.53 | 23800 | 5000 | 1 | 89 | 2.7 | EC50 (COX1 in HepG2 cells): > 150 µM; EC50 (HepG2 cells): 23 ± 1.4 µM; EC50 (SDHA in HepG2 cells): 39.5 ± 9.2 µM
OB1OCc2ccccc21 [AN2679] | 21.3 | – | 7.5 (≈ 56 µM) | – | – | – | – | – | – | – | – | – | – | – | – | – | – | – | –
CCOc1c(F)ccc2c1B(O)OC2CN (stereo not shown) [Compound 7] | 0.56 | > 50 | > 1.1 | – | – | – | – | – | – | – | – | – | – | – | – | – | – | – | MIC M.tb H37Rv (M. tuberculosis H37Rv): ≥ 1.1 µg/mL
CCOc1ccc(CC)c2c1B(O)OC2CN (stereo not shown) [Compound 9] | 0.31 | > 50 | 0.29 (≈ 1.23 µM) | – | – | – | – | – | – | – | – | – | – | – | – | – | – | – | –
CCOc1ccc(F)c2c1B(O)OC2CN (stereo not shown) [Compound 6] | 0.11 | > 50 | 0.05 (≈ 0.222 µM) | – | – | – | – | – | – | – | – | – | – | – | – | – | – | – | improvement of MIC values over compound 1 (M. tuberculosis H37Rv): more than 5 fold
CCOc1ccc(Cl)c2c1B(O)O[C@@H]2CN [Compound 13] | – | – | 0.02 (≈ 0.0828 µM) | 0.77 | 2 | 98 | 51600 | 13600 | 5.4 | 3.14 | 9.7 | 0.1 | 3.83 | 47500 | 6400 | 0.25 | 92 | 3.1 | EC50 (COX1 in HepG2 cells): > 150 µM; IC50 (M. tuberculosis LeuRS): 0.06 µM; EC50 (HepG2 cells): 80 ± 5.7 µM; Kd [1]: 0.075 µM; No. of sites [1]: 1.19; ΔGap [1]: -9.7 kcal/mol; ΔHap [1]: -4.2 kcal/mol; −TΔSap [1]: -5.5 kcal/mol; EC50 (SDHA in HepG2 cells): 20.5 ± 2.1 µM
CCOc1ccc(Cl)c2c1B(O)OC2CN (stereo not shown) [Compound 4] | – | > 50 | 0.04 (≈ 0.166 µM) | – | – | – | – | – | – | – | – | – | – | – | – | – | – | – | IC50 (M. tuberculosis LeuRS): 0.09 µM; improvement of MIC values over compound 1 (M. tuberculosis H37Rv): more than 5 fold
CCOc1cccc2c1B(O)O[C@@H]2CN [Compound 2] | 0.13 | > 50 | 0.13 (≈ 0.628 µM) | 0.94 | 5 | 95 | 13800 | 8900 | 2.1 | 2.12 | 36.3 | 0.06 | 1.5 | 13200 | 3400 | 0.5 | 96 | 1.8 | No. of sites ([1]; ITC, 25°C, with AMP): 1.05; ΔGap ([1]; ITC, 25°C, with AMP): -7.4 kcal/mol; ΔHap ([1]; ITC, 25°C, with AMP): -1.1 kcal/mol; −TΔSap ([1]; ITC, 25°C, with AMP): -6.3 kcal/mol; Kd ([1]; ITC, 25°C, with AMP, read-out: Kd): 3.7 µM
